Results published in ChEMBL document CHEMBL4396937, “Synthesis of new triazole fused imidazo[2,1-b]thiazole hybrids with emphasis on Staphylococcus aureus virulence factors” (Bioorg Med Chem Lett, 2019).
Converted amounts (≈) assume the structure as drawn. The source made the active and inactive calls. No cut-off for these calls is given here.

How the values were obtained:
Pseudomonas aeruginosa [1] = assay: Antibiofilm activity against Pseudomonas aeruginosa MTCC 2453 assessed as inhibition of biofilm formation by crystal violet staining-based microtitre plate assay; assay type: functional, organism-based
Staphylococcus aureus [2] = assay: Antibacterial activity against Staphylococcus aureus MTCC 96 assessed as reduction in bacterial growth incubated for 24 hrs by agar well diffusion method; assay type: functional; conditions: MTCC 96, 24 h
Raoultella planticola [3] = assay: Bactericidal activity against Klebsiella planticola MTCC 530 assessed as reduction in bacterial survival incubated for 24 hrs followed by transfer of microbial suspension to agar plates and measured at 24 hrs post transfer by agar well diffusion method; assay type: functional; conditions: MTCC 530, 24 h
Staphylococcus aureus [4] = assay: Bactericidal activity against Staphylococcus aureus MTCC 96 assessed as reduction in bacterial survival incubated for 24 hrs followed by transfer of microbial suspension to agar plates and measured at 24 hrs post transfer by agar well diffusion method; assay type: functional; conditions: MTCC 96, 24 h
Escherichia coli [5] = assay: Antibiofilm activity against Escherichia coli MTCC 739 assessed as inhibition of biofilm formation by crystal violet staining-based microtitre plate assay; assay type: functional, organism-based
Raoultella planticola [6] = assay: Antibiofilm activity against Klebsiella planticola MTCC 530 assessed as inhibition of biofilm formation by crystal violet staining-based microtitre plate assay; assay type: functional, organism-based
Staphylococcus aureus [7] = assay: Bactericidal activity against Staphylococcus aureus MLS-16 MTCC 2940 assessed as reduction in bacterial survival incubated for 24 hrs followed by transfer of microbial suspension to agar plates and measured at 24 hrs post transfer by agar well diffusion method; assay type: functional; conditions: MLS-16 MTCC 2940, 24 h
Candida albicans [8] = assay: Fungicidal activity against Candida albicans MTCC 3017 assessed as reduction in fungal survival incubated for 24 hrs followed by transfer of microbial suspension to agar plates and measured at 24 hrs post transfer by agar well diffusion method; assay type: functional
Micrococcus luteus [9] = assay: Antibiofilm activity against Micrococcus luteus MTCC 2470 assessed as inhibition of biofilm formation by crystal violet staining-based microtitre plate assay; assay type: functional, organism-based
Micrococcus luteus [10] = assay: Antibacterial activity against Micrococcus luteus MTCC 2470 assessed as reduction in bacterial growth incubated for 24 hrs by agar well diffusion method; assay type: functional; conditions: MTCC 2470, 24 h
Escherichia coli [11] = assay: Antibacterial activity against Escherichia coli MTCC 739 assessed as reduction in bacterial growth incubated for 24 hrs by agar well diffusion method; assay type: functional; conditions: MTCC 739, 24 h
Micrococcus luteus [12] = assay: Bactericidal activity against Micrococcus luteus MTCC 2470 assessed as reduction in bacterial survival incubated for 24 hrs followed by transfer of microbial suspension to agar plates and measured at 24 hrs post transfer by agar well diffusion method; assay type: functional; conditions: MTCC 2470, 24 h
MRC5 = assay: Cytotoxicity against human MRC5 cells assessed as reduction in cell viability incubated for 48 hrs by MTT assay; assay type: cell-based; conditions: MRC5, 48 h
Candida albicans [13] = assay: Antifungal activity against Candida albicans MTCC 3017 assessed as reduction in fungal growth incubated for 24 hrs by agar well diffusion method; assay type: functional
Staphylococcus aureus [14] = assay: Antibiofilm activity against Staphylococcus aureus MTCC 96 assessed as inhibition of biofilm formation by crystal violet staining-based microtitre plate assay; assay type: functional, organism-based
Pseudomonas aeruginosa [15] = assay: Antibacterial activity against Pseudomonas aeruginosa MTCC 2453 assessed as reduction in bacterial growth incubated for 24 hrs by agar well diffusion method; assay type: functional; conditions: MTCC 2453, 24 h
Staphylococcus aureus [16] = assay: Antibacterial activity against Staphylococcus aureus MLS-16 MTCC 2940 assessed as reduction in bacterial growth incubated for 24 hrs by agar well diffusion method; assay type: functional; conditions: MLS-16 MTCC 2940, 24 h
Bacillus subtilis [17] = assay: Antibiofilm activity against Bacillus subtilis MTCC 121 assessed as inhibition of biofilm formation by crystal violet staining-based microtitre plate assay; assay type: functional, organism-based
Bacillus subtilis [18] = assay: Antibacterial activity against Bacillus subtilis MTCC 121 assessed as reduction in bacterial growth incubated for 24 hrs by agar well diffusion method; assay type: functional; conditions: MTCC 121, 24 h
Pseudomonas aeruginosa [19] = assay: Bactericidal activity against Pseudomonas aeruginosa MTCC 2453 assessed as reduction in bacterial survival incubated for 24 hrs followed by transfer of microbial suspension to agar plates and measured at 24 hrs post transfer by agar well diffusion method; assay type: functional; conditions: MTCC 2453, 24 h
Bacillus subtilis [20] = assay: Bactericidal activity against Bacillus subtilis MTCC 121 assessed as reduction in bacterial survival incubated for 24 hrs followed by transfer of microbial suspension to agar plates and measured at 24 hrs post transfer by agar well diffusion method; assay type: functional; conditions: MTCC 121, 24 h
Escherichia coli [21] = assay: Bactericidal activity against Escherichia coli MTCC 739 assessed as reduction in bacterial survival incubated for 24 hrs followed by transfer of microbial suspension to agar plates and measured at 24 hrs post transfer by agar well diffusion method; assay type: functional; conditions: MTCC 739, 24 h
Staphylococcus aureus [22] = assay: Antibiofilm activity against Staphylococcus aureus MLS-16 MTCC 2940 assessed as inhibition of biofilm formation by crystal violet staining-based microtitre plate assay; assay type: functional, organism-based
Raoultella planticola [23] = assay: Antibacterial activity against Klebsiella planticola MTCC 530 assessed as reduction in bacterial growth incubated for 24 hrs by agar well diffusion method; assay type: functional; conditions: MTCC 530, 24 h
Staphylococcus aureus [24] = assay: Antibiofilm activity against Staphylococcus aureus MTCC 96 assessed as inhibition of biofilm formation incubated for 48 hrs in presence of Escherichia coli MTCC 739 by FE-SEM analysis; assay type: functional, organism-based; conditions: MTCC 96, 48 h

O=C(c1cn(-c2ccc(Br)cc2)nn1)c1c(-c2ccccc2)nc2sccn12
IC50 (Pseudomonas aeruginosa [1]): 20.2 µg/mL (≈ 44.9 µM) | MIC (Staphylococcus aureus [2]): 3.9 µg/mL (≈ 8.66 µM) | MBC (Raoultella planticola [3]): 7.8 µg/mL (≈ 17.3 µM) | MBC (Staphylococcus aureus [4]): 7.8 µg/mL (≈ 17.3 µM) | IC50 (Escherichia coli [5]): 20.2 µg/mL (≈ 44.9 µM) | IC50 (Raoultella planticola [6]): 21.1 µg/mL (≈ 46.9 µM) | MBC (Staphylococcus aureus [7]): 7.8 µg/mL (≈ 17.3 µM) | MFC (Candida albicans [8]; MTCC 3017, 24 h): 15.6 µg/mL (≈ 34.6 µM) | IC50 (Micrococcus luteus [9]): 13.9 µg/mL (≈ 30.9 µM) | MIC (Micrococcus luteus [10]): 7.8 µg/mL (≈ 17.3 µM) | MIC (Escherichia coli [11]): 3.9 µg/mL (≈ 8.66 µM) | MBC (Micrococcus luteus [12]): 15.6 µg/mL (≈ 34.6 µM) | IC50 (MRC5): 28.1 µg/mL (≈ 62.4 µM) | MIC (Candida albicans [13]; MTCC 3017, 24 h): 7.8 µg/mL (≈ 17.3 µM) | IC50 (Staphylococcus aureus [14]): 21.8 µg/mL (≈ 48.4 µM) | MIC (Pseudomonas aeruginosa [15]): 3.9 µg/mL (≈ 8.66 µM) | MIC (Staphylococcus aureus [16]): 3.9 µg/mL (≈ 8.66 µM) | IC50 (Bacillus subtilis [17]): 16 µg/mL (≈ 35.5 µM) | MIC (Bacillus subtilis [18]): 3.9 µg/mL (≈ 8.66 µM) | MBC (Pseudomonas aeruginosa [19]): 7.8 µg/mL (≈ 17.3 µM) | MBC (Bacillus subtilis [20]): 7.8 µg/mL (≈ 17.3 µM) | MBC (Escherichia coli [21]): 7.8 µg/mL (≈ 17.3 µM) | IC50 (Staphylococcus aureus [22]): 14.4 µg/mL (≈ 32 µM) | MIC (Raoultella planticola [23]): 3.9 µg/mL (≈ 8.66 µM)

O=C(O)c1cn(C2CC2)c2cc(N3CCNCC3)c(F)cc2c1=O [CIPROFLOXACIN]
IC50 (Pseudomonas aeruginosa [1]): 7.4 µg/mL (≈ 22.3 µM) | MIC (Staphylococcus aureus [2]): 0.9 µg/mL (≈ 2.72 µM) | MBC (Raoultella planticola [3]): 1.9 µg/mL (≈ 5.73 µM) | MBC (Staphylococcus aureus [4]): 1.9 µg/mL (≈ 5.73 µM) | IC50 (Raoultella planticola [6]): 8.6 µg/mL (≈ 26 µM) | MBC (Staphylococcus aureus [7]): 1.9 µg/mL (≈ 5.73 µM) | MFC (Candida albicans [8]): inactive | IC50 (Micrococcus luteus [9]): 6.8 µg/mL (≈ 20.5 µM) | MIC (Micrococcus luteus [10]): 0.9 µg/mL (≈ 2.72 µM) | IC50 (Staphylococcus aureus [24]): 11.6 µg/mL | MIC (Escherichia coli [11]): 0.9 µg/mL (≈ 2.72 µM) | MBC (Micrococcus luteus [12]): 1.9 µg/mL (≈ 5.73 µM) | IC50 (MRC5): 53.4 µg/mL (≈ 161 µM) | MIC (Candida albicans [13]): inactive | IC50 (Staphylococcus aureus [14]): 6.7 µg/mL (≈ 20.2 µM) | MIC (Pseudomonas aeruginosa [15]): 0.9 µg/mL (≈ 2.72 µM) | MIC (Staphylococcus aureus [16]): 0.9 µg/mL (≈ 2.72 µM) | IC50 (Bacillus subtilis [17]): 6.6 µg/mL (≈ 19.9 µM) | MIC (Bacillus subtilis [18]): 0.9 µg/mL (≈ 2.72 µM) | MBC (Pseudomonas aeruginosa [19]): 1.9 µg/mL (≈ 5.73 µM) | MBC (Bacillus subtilis [20]): 1.9 µg/mL (≈ 5.73 µM) | MBC (Escherichia coli [21]): 1.9 µg/mL (≈ 5.73 µM) | IC50 (Staphylococcus aureus [22]): 6.6 µg/mL (≈ 19.9 µM) | MIC (Raoultella planticola [23]): 0.9 µg/mL (≈ 2.72 µM)
